Here are results for 37 molecules from patent US20200031811A1, “SUBSTITUTED MONO- AND POLYAZANAPHTHALENE DERIVATIVES AND THEIR USE” (Basilea Pharmaceutica International AG, priority 2015, published 2020).

In test [1] the test system is human pancreatic cancer cell line MiaPaCa2 (ATCC CRL-1420). Put plainly: Cell growth assay (CellTiterGlo, 72 hours). The following applies: for inhibition at 100 µM: MIA PaCa-2, at 100 μM; for inhibition at 100 µM / inhibition at 50 µM: read-out: Inhibition of MiaPaCa growth at indicated concentration; for inhibition at 50 µM: MIA PaCa-2, at 50 μM; for IC50: MIA PaCa-2, MiaPaCa2 cells, 72 hours, read-out: IC50 MiaPaCa. The test is classed as cell-based. On the procedure:
The inhibition of cell growth by the compounds was tested by exposing the human pancreatic cancer cell line MiaPaCa2 (ATCC CRL-1420) to the compounds. The assay was performed in 384 well clear bottom white microtiter plates (Greiner #781098). Each well was seeded with 10^3 cells in 20 μl of Dulbecco's modified Eagle's medium (Sigma D6796) supplied with 10% fetal calf scrum (Sigma F7524), 2.5% horse serum (Sigma H0146), 1% Penicillin-Streptomycin (Sigma P0781), 1% MEM nonessential amino acid solution 100× (Sigma M71459) and 1% 200 mM L-Glutamine (Sigma G7513) culture medium. After overnight incubation at 37° C. in 5% CO2 the compounds were added in the following concentrations: 100, 50, 20, 10, 5, 2, 1, 0.5, 0.2 and 0.1 μM. Each compound concentration was tested in quadruplicate. The incubation was then continued for 72 hours. After 72 hours the growth of the cells was assessed by the addition of the CellTiterGlo reagent (Promega G9242) as instructed by the provider. The luminescent signal was recorded on a SpectraMax M2 microplate reader. The signal obtained in wells containing cells cultivated in the absence of compound was set to 100% growth after subtracting the signal obtained in medium only wells. The % growth in each well was calculated by subtracting the medium only value and dividing through the 100% growth value. The IC50 for cell growth, the concentration of compound at which cell growth was reduced to 50%, was calculated with the GraFit6 software (Erythacus software).

The target in the next test is T1, MNK1 (Homo sapiens, UniProt Q9BUB5).
T1 construct: purchased Life Technologies or Carna Biosciences PV6023 or 02-145; host or cells: baculovirus infected insect cells
Put plainly: MNK inhibition assay (Z-Lyte kinase assay, Ser/Thr 7 peptide). Type of test: biochemical. To be noted: for IC50: recombinant GST-MNK1, 3 hours at 31° C. The source says: For the measurement of the activity of the MNK1 kinase the Z-Lyte kinase assay system was used. The kinase activity of MNK1 can be quantified with the Z-Lyte kinase assay kit Ser/Thr 7 peptide (Life Technologies PV3180). The kit was utilized according to the instructions of the provider. A recombinant GST-MNK1 fusion protein produced in and purified from baculovirus infected insect cells was used as enzyme source (GST-MNK1 Life Technologies PV6023 or Carna Biosciences 02-145). It was verified that both sources of the MNK1 enzyme gave similar IC50 values with several compounds. The MNK1 enzyme assay was performed in 384 well round bottom black microtiter plates (Corning 3676). The kinase reaction was performed for 3 hours at 31° C. As instructed by the provider of the kit the amount of enzyme was chosen such that ˜30% of the substrate peptide was phosphorylated in control wells containing buffer only. The MNK1 inhibiting activity of compounds was tested by adding the compounds to the kinase reaction at a concentration of 10000, 5000, 2000, 1000, 500, 200, 100, 50 nM. Compounds with strong MNK1 inhibition were tested at 20, 10, 5, 2, 1 and 0.5 nM in addition. Each compound concentration was tested at least in duplicate. The % phosphorylation of the substrate peptide at each compound concentration was calculated as described in the assay manual. The fluorescent signals were recordes on Biotek Cytation 3 microplate reader. The IC50, the concentration that reduced substrate phosphorylation by 50% if compared to buffer only wells, was calculated with the Grafit 6 software (Erythacus software).

T1 sequence (Q9BUB5 whole entry): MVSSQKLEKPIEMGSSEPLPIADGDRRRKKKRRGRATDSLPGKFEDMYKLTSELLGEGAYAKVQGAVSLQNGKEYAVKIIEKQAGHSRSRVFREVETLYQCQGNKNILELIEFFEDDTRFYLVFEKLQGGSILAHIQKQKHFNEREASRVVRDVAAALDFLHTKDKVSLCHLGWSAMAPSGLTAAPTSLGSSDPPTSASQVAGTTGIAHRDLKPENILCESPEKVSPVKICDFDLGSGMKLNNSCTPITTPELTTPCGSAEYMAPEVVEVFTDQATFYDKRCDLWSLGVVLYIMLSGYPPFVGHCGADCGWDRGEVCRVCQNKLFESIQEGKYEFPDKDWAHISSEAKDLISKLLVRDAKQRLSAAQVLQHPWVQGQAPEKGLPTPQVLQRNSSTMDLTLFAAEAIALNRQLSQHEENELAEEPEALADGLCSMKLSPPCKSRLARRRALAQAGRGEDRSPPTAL

For the molecule `Oc1ccc(-c2cnnc3ccc(CN4CCNCC4)cc23)cc1` [Example 85], in test [1], the inhibition at 100 µM was 33%. In addition, the IC50 at MNK1 worked out at 318 nM.

In the case of `NC1CCN(Cc2ccc3cncc(-c4cccnc4)c3c2)CC1` [Example 14], the inhibition at 50 µM in test [1] amounted to 52%. Moreover, the inhibition at 1 µM on MNK1 (at 1 μM, read-out: Inhibition of MNK1 activity at indicated concentration) was found to be 34%.

For `c1ccc2oc(-c3cncc4ccc(NCC5CCCNC5)cc34)cc2c1` (centres unmarked) [Example 214], the IC50 in test [1] came out at 1.42 µM; at MNK1, 534 nM.

Turning to `CN(c1ccc2cncc(-c3cc4ccccc4o3)c2c1)C1CCC(N)CC1` (centres unmarked) [Example 210], the half-maximal inhibitory concentration (IC50) turned out to be 1.76 µM in test [1] and 22 nM at MNK1.

Consider `Cc1cnccc1NCc1ccc2cncc(-c3cc4ccccc4o3)c2c1` [Example 69], for which the figures for the IC50 (in test [1]; on MNK1) were 7 µM and 17 nM, respectively.

On to `COc1cc(O[C@H]2CC[C@H](N)CC2)cc2c(-c3cc4ccccc4o3)cnc(N)c12` [Example 323, trans-6-(4-Aminocyclohexoxy)-4-(benzofuran-2-yl)-8-methoxy-isoquinolin-1-amine], for which the 50% inhibitory concentration (IC50) in test [1] was 3.2 µM; at MNK1, 211 nM.

With `Nc1cc[n+](Cc2ccc3cncc(-c4ccccc4)c3c2)cc1` [Example 121, 1-[(4-Phenyl-6-isoquinolyl)methyl]pyridin-1-ium-4-amine], the concentration for half-maximal inhibition (IC50) is 21.8 µM in test [1] and 165 nM on MNK1.

Turning to `Nc1cc2cncc(-c3cc4ccccc4o3)c2cc1CN1CCC(N)CC1` [Example 254, 6-[(4-Amino-1-piperidyl)methyl]-4-(benzofuran-2-yl)isoquinolin-7-amine], the IC50 in test [1] was found to be 6.99 µM; on MNK1 it was 57 nM.

In the case of `NC1CCN(Cc2cc3c(-c4cc5ccccc5o4)cncc3cc2F)CC1` [Example 249], the results for the concentration for half-maximal inhibition (IC50) (in test [1]; at MNK1) were 7.86 µM and 44 nM, respectively.

Consider `c1ccc2oc(-c3cncc4ccc(CN5CCNCC5)nc34)cc2c1` [Example 302], for which the IC50 in test [1] turned out to be 18 µM; on MNK1 it was 142 nM.

Regarding `Nc1ncc(-c2ccccc2)c2cc(O[C@H]3CC[C@H](N)CC3)ccc12` [Example 322], the results for the IC50 (in test [1]; on MNK1) were 2.17 µM and 153 nM, respectively.

As for `Nc1ccc2c(ccn2Cc2ccc3cncc(-c4cc5ccccc5o4)c3c2)c1` [Example 192, 1-[[4-(Benzofuran-2-yl)-6-isoquinolyl]methyl]indol-5-amine], the IC50 in test [1] amounted to 26 µM; at MNK1, 1550 nM.

Regarding `NC1CCN(Cc2ccc3cncc(-c4ccco4)c3c2)CC1` [Example 177, 1-[[4-(2-Furyl)-6-isoquinolyl]methyl]piperidin-4-amine], the half-inhibitory concentration (IC50) in test [1] was determined as 3.65 µM; at MNK1, 125 nM.

With `Cc1c[n+](Cc2ccc3cncc(-c4cc5ccccc5o4)c3c2)ccc1N` [Example 57], the IC50 in test [1] was 3.37 µM; at MNK1 it was 7.9 nM.

Regarding `Fc1cnccc1NCc1ccc2cncc(-c3cc4ccccc4o3)c2c1` [Example 70], the IC50 in test [1] stood at 12.2 µM; on MNK1 it was 32 nM.

For `NC1CCN(Cc2ccc3cncc(-c4cc5ccccc5o4)c3c2)CC1` [Example 1, 1-[[4-(Benzofuran-2-yl)-6-isoquinolyl]methyl]piperidin-4-amine], the IC50 in test [1] was 3.54 µM; on MNK1 it was 110 nM.

On to `Nc1ncc(-c2ccc(O)cc2)c2cc(CN3CCC(N)CC3)ccc12` [Example 94], for which, in test [1], the inhibition at 50 µM turned out to be 27%. In addition, the half-maximal inhibitory concentration (IC50) on MNK1 was 221 nM.

Turning to `NC1CCN(Cc2ccc3cncc(-c4cc5cnccc5o4)c3c2)CC1` [Example 275], the values for the IC50 (in test [1]; at MNK1) were 5.07 µM and 175 nM, respectively.

For `Nc1cc[n+](Cc2ccc3c(N)ncc(-c4cc5ccccc5o4)c3c2)cc1` [Example 152, 6-[(4-Aminopyridin-1-ium-1-yl)methyl]-4-(benzofuran-2-yl)isoquinolin-1-amine], the IC50 in test [1] came out at 1.56 µM; on MNK1, 17 nM.

Turning to `Nc1ncc(-c2ccccc2)c2cc(CN3CCNCC3)ccc12` [Example 91, 4-Phenyl-6-(piperazin-1-ylmethyl)isoquinolin-1-amine], the IC50 in test [1] amounted to 11.3 µM; on MNK1 it was 476 nM.

`Cc1cc(NC(=O)Nc2ccc(-c3cncc4ccc(CN5CCC(N)CC5)cc34)cc2)on1` [Example 120, 1-[4-[6-[(4-Amino-1-piperidyl)methyl]-4-isoquinolyl]phenyl]-3-(3-methylisoxazol-5-yl)urea]: the IC50 was 18.7 µM in test [1] and 683 nM at MNK1.

For `NC1CCN(Cc2ccc3cncc(-c4ccc(Cl)s4)c3c2)CC1` [Example 171], the IC50 in test [1] amounted to 11.2 µM; at MNK1, 189 nM.

Consider `Nc1cc[n+](Cc2ccc3cncc(-c4ccc(O)cc4)c3c2)cc1` [Example 122], for which, in test [1], the inhibition at 100 µM was 37%. For the same molecule, the half-inhibitory concentration (IC50) on MNK1 is 28 nM.

In the case of `CN(C)C1CCN(Cc2ccc3cncc(-c4cc5ccccc5o4)c3c2)CC1` [Example 46, 1-[[4-(Benzofuran-2-yl)-6-isoquinolyl]methyl]-N,N-dimethyl-piperidin-4-amine], the values for the 50% inhibitory concentration (IC50) (in test [1]; at MNK1) were 8.21 µM and 618 nM, respectively.

As to `N[C@H]1CC[C@H](Nc2cc(Cl)c3cncc(-c4ccccc4)c3c2)CC1` [Example 308], the half-maximal inhibitory concentration (IC50) in test [1] worked out at 2.34 µM; at MNK1 it was 28 nM.

As to `c1ccc2oc(-c3cncc4ccc(CNc5ccncc5)cc34)cc2c1` [Example 61], the half-inhibitory concentration (IC50) in test [1] turned out to be 5.25 µM; at MNK1, 3 nM.

As to `Nc1cc(Nc2ccc3cncc(-c4cc5ccccc5o4)c3c2)ccn1` [Example 137, N4-[4-(Benzofuran-2-yl)-6-isoquinolyl]pyridine-2,4-diamine], the IC50 was determined as 3.25 µM in test [1] and 1090 nM on MNK1.

As to `c1ccc2oc(-c3cncc4ccc(OC5CCNCC5)cc34)cc2c1` [Example 78, 4-(Benzofuran-2-yl)-6-(4-piperidyloxy)isoquinoline], the results for the IC50 (in test [1]; at MNK1) were 3.46 µM and 208 nM, respectively.

As for `N[C@H]1CC[C@H](Oc2cc(Cl)c3cncc(-c4cc5ccccc5o4)c3c2)CC1` [Example 310], the concentration for half-maximal inhibition (IC50) in test [1] was 2.37 µM; at MNK1, 135 nM.

Take `N[C@@H]1CCC[C@H](Nc2ccc3cncc(-c4cc5ccccc5o4)c3c2)C1` [Example 292]: the figures for the concentration for half-maximal inhibition (IC50) (in test [1]; at MNK1) were 5.09 µM and 161 nM, respectively.

For the molecule `NC1CCN(Cc2ccc3cncc(-c4cc5ccccc5[nH]4)c3c2)CC1` [Example 6], the IC50 in test [1] came to 6.05 µM; on MNK1, 917 nM.

For `COc1cc(O[C@H]2CC[C@H](N)CC2)cc2c(-c3cc4ccccc4o3)cncc12` [Example 314, Trans-4-[[4-(Benzofuran-2-yl)-8-methoxy-6-isoquinolyl]oxy]cyclohexanamine], the results for the half-maximal inhibitory concentration (IC50) (in test [1]; on MNK1) were 4.74 µM and 302 nM, respectively.

With `O=C1CN(Cc2ccc3cncc(-c4ccc(O)cc4)c3c2)CCN1` [Example 22, 4-[[4-(4-Hydroxyphenyl)-6-isoquinolyl]methyl]piperazin-2-one], in test [1], the inhibition at 100 µM stood at 69%. Besides, the concentration for half-maximal inhibition (IC50) at MNK1 turned out to be 662 nM.

In the case of `NC1CCN(Cc2ccc3cncc(-c4cn[nH]c4)c3c2)CC1` [Example 204], the inhibition at 50 µM in test [1] stood at 55%. Moreover, at MNK1, the IC50 is 4700 nM.

For the molecule `COc1cc(CN2CCC(N)CC2)cc2c(-c3cc4ccccc4o3)cnc(N)c12` [Example 258, 6-[(4-Amino-1-piperidyl)methyl]-4-(benzofuran-2-yl)-8-methoxy-isoquinolin-1-amine], the IC50 in test [1] was determined as 3.57 µM; on MNK1, 149 nM.

For the molecule `Cn1nccc1Oc1ccc2cncc(-c3cc4ccccc4o3)c2c1` [Example 96], the 50% inhibitory concentration (IC50) in test [1] stood at 6.14 µM; on MNK1, 3990 nM.

In the case of `Cn1nccc1OCc1ccc2cncc(-c3cc4ccccc4o3)c2c1` [Example 97, 4-(Benzofuran-2-yl)-6-[(2-methylpyrazol-3-yl)oxymethyl]isoquinoline], the IC50 was determined as 10.8 µM in test [1] and 397 nM at MNK1.
